Source: patent US20250134895A1, “METHODS AND COMPOSITIONS FOR TREATING ALPHA-SYNUCLEIN-MEDIATED NEURODEGENERATION” (UNIVERSITY HEALTH NETWORK, priority 2021, published 2025)

How the values were obtained:
[1] = tested on: transgenic A30P α-synuclein C. elegans; experiment: Coiler score and locomotion of C. elegans expressing A30P α-synuclein in dopaminergic neurons; type: in vivo, Caenorhabditis elegans
Protocol: Using high-resolution, multi-worm tracking with custom image processing, methods were developed for semi-automated and blinded scoring of circularity for a population of simultaneously recorded animals (n=10 per recording). A coiler score was determined for the population tested by first calculating the circularity value for each animal in each frame of video and then calculating the proportion of circularity values >0.6. […] The coiler phenotype is an abnormal motor behaviour previously reported for several unc C. elegans strains with mutations affecting neuronal function.
Animals were synchronized by isolating eggs using alkaline hypochlorite treatment and hatching overnight. Larvae were plated onto NGM agar plates with OP50 and grown for 4 days before recording locomotion. For individual C. elegans recordings, a single adult animal was randomly picked, washed for 1 to 2 minutes in M9 buffer, and then transferred to a fresh NGM plate without food for imaging. Video images were acquired (2 frames per second) for up to 6 minutes using a sCMOS camera (pco.edge, PCO) mounted on a stereomicroscope (Olympus MVX10 MacroView) controlled using the μManager software.^55 A total of 40 individual animals were imaged for each strain. For C. elegans population recordings, ten adult animals were randomly removed using an eyelash pick, washed for 1 minute in M9 buffer, and then transferred to a fresh NGM plate without food, with a ring of copper sulfate solution (150 mM) around the area of recording (a chemorepellent to keep the animals in the recording frame). Exploratory locomotion was recorded using a CCD camera (GX1920, Allied Vision) which was attached to a dissecting stereomicroscope (Leica M165C, 1.0× PlanApo lens). A Labview program captured video (2 frames per second) at 1936×1456 resolution. Using ImageJ, the displacement, perimeter, and area of each animal was calculated, from which a circularity value was computed using the following formula: circularity=4π(A/P^2), where A is the area of the animal's body and P is the perimeter of the animal's body (both expressed in arbitrary pixel units). […] Using MATLAB (Mathworks), various behavioural metrics including the coiler score were calculated, which is the percentage of frames with a circularity value >0.6. Speed was automatically computed from the ImageJ based WrmTrk plugin as the distance travelled by each animal (in pixels) over the amount of time that it was tracked (in seconds).56 Average speed was determined by calculating the weighted average of each tracked animal's speed within a single population of animals. On the day of the recording for dopamine or raclopride treatment, adult animals were washed for 1 minute in M9 buffer, treated in a solution containing either drug for 1 minute, and then placed onto fresh NGM plates without food, with a copper sulfate solution ring around the area of recording. […] Drug plates were prepared by adding each drug to LB medium with OP50 before spreading onto fresh NGM plates. The solvent used to dissolve each drug was used as vehicle control for the drug treatment experiments (M9 buffer for dopamine, distilled water for raclopride, DMSO for all other drugs).
After 72 hours of drug treatment, animals were randomly picked, washed, and recorded. A total of ten worms were recorded per population, and twelve populations were recorded for each of the four treatment groups. Locomotion was recorded for each population over a total of 1800 frames over three minutes. The animal's movement speed, area, and perimeter were automatically analyzed as previously described. Coiler score was calculated automatically using a ratio of the animal's area to perimeter, where a higher coiler score would represent a greater degree of α-synuclein-induced dopaminergic neuron dysfunction in vivo.

[2] = tested on: α-synuclein protein; experiment: Immunoblot for α-synuclein protein in lysates of treated C. elegans; type: in vivo, Caenorhabditis elegans; conditions: 50 μM
From the text: The chaperone system is composed of chaperone proteins, such as HSP70 (heat shock protein 70), and co-chaperones. Together, these proteins are integral to maintaining cellular protein quality control by folding newly translated polypeptides into their native conformation, refolding misfolded proteins to prevent their aggregation, and targeting proteins to degradation pathways, such as the autophagy-lysosomal system or ubiquitin-proteasome system, when refolding is unsuccessful. From the above in vitro findings, it was predicted that perturbations to the chaperone system in vivo would affect coiling of the transgenic α-synuclein C. elegans. To test this prediction, we treated the animals were treated with the geldanamycin analogue, 17-(allylamino)-17-demethoxygeldanamycin (17-AAG). […]
Synchronized animals (4 or 5 days old) were lysed in 0.5X Tris-HCl buffer with 0.5% Triton X-100 at 100° C. for 5 minutes and then passed through a 23-gauge needle 10 times. […] Protein concentration was determined with a Bio-Rad Lowry protein assay (Bio-RAD, 5000116) according to the manufacturer's instructions. […] Beads were washed and samples were analysed by immunoblotting and mass spectrometry (see below). […] Signals were detected with ECL (ThermoFisher, 32132) and developed on HyBlot CL autoradiography film (DV-E3018).

[3] = tested on: H4 neuroglioma cells
Protocol: (§1) For controls in this assay, vehicle (i.e., DMSO), rapamycin, and bafilomycin A were used. Rapamycin, or sirolimus, is a small molecule that activates autophagy by inhibiting mTOR (mammalian target of rapamycin). […] To test this possibility, cells expressing α-synuclein were treated with each of the compounds and a cell permeable, resazurin-based assay was used to test for cell viability.
(§2) H4 neuroglioma cells (ATCC, HTB-148) were maintained in Dulbecco's Modified Eagle Medium plus high glucose, L-glutamine, and sodium pyruvate (ThermoFisher, 11995-065) with 10% heat-inactivated fetal bovine serum (ThermoFisher, 16140071) and 1% antibiotic-antimycotic cocktail (ThermoFisher, 15240062) at 37° C. and 5% CO2. DNA expression constructs encoding for full-length human α-synuclein fused to the N-terminal fragment of Gaussia princeps luciferase (syn-luc1), full-length human α-synuclein fused to the C-terminal fragment of Gaussia princeps luciferase (syn-luc2), and full-length Gaussia princeps luciferase were kindly provided by Dr. Pamela McLean, Mayo Clinic Jacksonville.^33 Cells were transiently co-transfected with syn-luc1 and syn-luc2 or transfected with luciferase alone using Superfect transfection reagent (Qiagen, 301305) according to the manufacturer's instructions. Twenty-four hours after transfection, cells were plated on a 96-well microplate at 60,000 cells per well. Twenty-four hours after plating, cells were treated with drugs or vehicle control. Following 24 hours of treatment, cells were washed 1 time with PBS and bioluminescence was measured using an automated CLARIOstar plate reader (Mandel, 430-0505). Cell permeable, native coelenterazine was used as the Gaussia luciferase substrate. Lyophilized coelenterazine (Nanolight, 303-500) was reconstituted in NanoFuel Solvent (Nanolight, 399-1), then diluted in PBS to 16.6 μg/mL, and dispensed per well to a final concentration of 20 μM). The bioluminescent signal generated by the luciferase enzyme was assessed at 470 nm over 5 seconds. Raw luminescence units were normalized to the DMSO vehicle control of each 96-well microplate. To assess cell viability, H4 neuroglioma cells were prepared and treated as described above and, 1 hour prior to viability analysis, cells were treated with PrestoBlue viability reagent (ThermoFisher, A13261) according to the manufacturer's instructions. Fluorescence was automatically measured using a CLARIOstar plate reader (Mandel, 430-0505) and then normalized to the fluorescence measure of the DMSO vehicle control.

[4] = molecular target: T1, α-synuclein oligomers (Homo sapiens, UniProt P37840); experiment: Immunoblot of crosslinked split YFP-tagged α-synuclein oligomers in rat primary cortical neuron lysates; type: cell-based; set-up: full-length human α-synuclein fused to the N-terminal fragment of Venus YFP (V1 S); full-length human α-synuclein fused to the C-terminal fragment of Venus YFP (SV2); host or cells: rat (Sprague Dawley, E17) primary cortical neurons, AAV co-transduction; conditions: losartan 100 μM, rapamycin 50 nM, rifabutin 20 μM
Protocol: FIGS. 7A-7E. […] (a) Five positive hits were tested for their ability to reduce α-synuclein oligomer levels in rat primary cortical neurons measured with YFP-based protein-fragment complementation. […] Fluorescence intensity was analyzed using Imaris image analysis software by measuring the mean fluorescence intensity of α-synuclein positive neurons throughout a 3D field of view generated by z-stack image acquisition using the “surfaces” module. The value generated for each neuron was normalized to the mean fluorescence intensity of neurons treated with vehicle alone (N=3-4 replicates of n=10 fields of view for each treatment; each data point represents an individual replicate) (nested one-way ANOVA with Dunnett's post-hoc test, *p<0.05, *** p<0.001). […] Bottom: Representative fluorescent microscopy images of neurons treated with vehicle, losartan, rapamycin, or rifabutin and expressing YFP alone. Scale bars are […]. (e) Representative immunoblot to detect oligomers of split YFP-tagged α-synuclein (crosslinked) in rat primary cortical neuron lysates (actin used as a loading control).
Finally, it was examined whether these 5 compounds that had effects in our invertebrate C. elegans model reduce α-synuclein oligomers and α-synuclein-mediated dopaminergic neurodegeneration in mammalian systems.

[5] = molecular target: T1, α-synuclein oligomers; experiment: Gaussia luciferase protein-fragment complementation cell assay of α-synuclein oligomers in H4 neuroglioma cells; type: cell-based; set-up: full-length human α-synuclein fused to the N-terminal fragment of Gaussia princeps luciferase (syn-luc1); full-length human α-synuclein fused to the C-terminal fragment of Gaussia princeps luciferase (syn-luc2); expressed in transfected cells; host or cells: H4 neuroglioma cells (ATCC, HTB-148), transient co-transfection; conditions: 1 μM or 10 μM, 24 hours of treatment
Protocol: as §1, §2
We used a bioluminescent protein-fragment complementation assay in which human H4 neuroglioma cells co-express human α-synuclein tagged with the N- or C-terminal half of Gaussia princeps luciferase (FIG. 12). Reconstitution of a complete and active luciferase molecule from the fragments occurs upon α-synuclein oligomerization, and so luminescence provides an indirect measure of α-synuclein oligomer levels. H4 neuroglioma cells were co-transfected with α-syn luciferase fragments, and constructs were plated into a 96-well plate and treated with either 1 μM or 10 μM of each of the 19 drug compounds.

[6] = tested on: full-length Gaussia princeps luciferase; experiment: Activity of full-length Gaussia luciferase alone in H4 cells; type: cell-based; conditions: Example 5, FIG. 5c
Protocol: as §1, §2

[7] = molecular target: T1, α-synuclein oligomers; experiment: Venus YFP protein-fragment complementation assay in rat primary cortical neurons; type: cell-based; conditions: 72 hours; losartan 100 μM, rapamycin 50 nM, rifabutin 20 μM
Protocol: Specifically, adeno-associated viral vectors (AAV) were used to co-express human α-synuclein tagged with the N- or C-terminal half of Venus yellow fluorescent protein (YFP) in rat cortical neurons.
Pregnant Sprague Dawley rats (E17) were purchased from Charles River. Embryos were surgically removed, and neurons were harvested in a sterile environment. Neurons were plated on poly-D-lysine coated glass coverslips at a density of 5×10^5 cells per well in Neurobasal-A medium, (Gibco, 10888022) supplemented with B27 (2%) (Gibco, 17504044), antibiotic-antimycotic (1%) (Gibco, 15240062), and Glutamax (1%) (Gibco, 35050061). Fifty percent media changes were performed every 3 days. […] Two days post isolation, neurons were co-transduced with AAV-V1 S and AAV-SV2 or transduced with AAV-Venus alone at a MOI of 3,000. […] Concentrations were selected to avoid neuron toxicity according to previous reports.^57-61 Drug-containing media was removed, and cells were washed 1 time with ice-cold PBS before being fixed with 4% PFA (Sigma) at room temperature for 10 minutes. Levels of α-synuclein oligomers were measured by YFP fluorescence. […] YFP fluorescence intensity was analysed automatically using Imaris imaging software (Oxford Instruments). […]

Row | α-synuclein oligomers as detected by immunoblotting [4] | decrease in luciferase activity compared with vehicle alone [5] | decrease in fluorescence compared with vehicle alone [7] | Structure (SMILES) | reduced coiling compared with vehicle control ([1]; 50 μM) | α-synuclein protein levels [2] | changes in viability [3] | reduction in coiling compared with vehicle alone (decrease) ([1]; 100 μM of drug, 3 days on drug plates) | changes in the activity of full-length Gaussia luciferase alone [6]
1 |  |  |  | C=CCNC1=C2C[C@@H](C)C[C@H](OC)[C@H](O)[C@@H](C)/C=C(\C)[C@H](OC(N)=O)[C@@H](OC)/C=C\C=C(/C)C(=O)NC(=CC1=O)C2=O [17-AAG, 17-(allylamino)-17-demethoxygeldanamycin] | 51% | lower |  |  | 
2 | reduction | 16% | 33% | CCCCc1nc(Cl)c(CO)n1Cc1ccc(-c2ccccc2-c2nnn[nH]2)cc1 [Losartan, losartan] |  |  | No statistically significant changes | 45% | No statistically significant changes
